From ChEMBL document CHEMBL1133791, “Intracellular inhibition of human neutrophil elastase by orally active pyrrolidine-trans-lactams” (Bioorg Med Chem Lett, 2001) come the findings set out here.

Molecules are shown by their SMILES. Residues, ends and D or L forms follow the SMILES beside them. *: point of attachment. CF3 = FC(F)(F)*; Moc = COC(=O)* A value given as a limit tells only on which side of the number the result lay.

For data set [1], the target named is T1, Neutrophil elastase (Homo sapiens, UniProt P08246).
T1 sequence (P08246 whole entry): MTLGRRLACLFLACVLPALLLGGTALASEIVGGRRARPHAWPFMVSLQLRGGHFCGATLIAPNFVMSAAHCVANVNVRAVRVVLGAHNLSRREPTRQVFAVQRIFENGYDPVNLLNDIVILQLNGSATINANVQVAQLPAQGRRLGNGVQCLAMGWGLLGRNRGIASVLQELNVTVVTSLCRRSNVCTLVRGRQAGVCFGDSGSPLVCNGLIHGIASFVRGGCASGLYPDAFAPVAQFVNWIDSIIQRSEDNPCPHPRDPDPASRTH
As to the kind of experiment: In vitro inhibitory activity against human neutrophil elastase (HNE).

Data set [2] deals with T1, Neutrophil elastase. Description: In vitro inhibitory activity in human whole blood (HWB) elastase at a concentration of 10. The class given is tissue-based.
A short description of data set [3]: Half life after po administration of 10 mg/kg in hamster. The data set is classed as ADME, organism-based. Set-up: dose 10 mg/kg, route oral. The conditions noted are these: cricetinae, in vivo.
The nature of data set [4]: Solubility in water was evaluated. The data set is classed as physicochemical.
The nature of data set [5]: Volume distribution after iv administration at 3 mg/kg in hamster. The data set is classed as ADME, organism-based. Further details: dose 3 mg/kg, route intravenous. To be noted: cricetinae, in vivo.
For data set [6], the system named is Hamster. Description: Plasma clearance after iv administration at 3 mg/kg in hamster. To be noted: cricetinae, in vivo. Set-up: dose 3 mg/kg, route intravenous. The data set is classed as ADME, organism-based.
Data set [7] in a line: Half life after iv administration at 3 mg/kg in hamster. Set-up: dose 3 mg/kg, route intravenous. The class given is ADME, organism-based. The conditions noted are these: cricetinae, in vivo.
Data set [8] in a line: Bioavailability after po administration of 10 mg/kg in hamster. The class given is ADME, organism-based, Cricetulus griseus. The conditions noted are these: chinese hamster, in vivo.
The target of data set [9] is T2, Neutrophil elastase (Homo sapiens) (UniProt P08246).
T2 sequence (whole entry): T1 sequence (P08246 whole entry)
To be noted: Cricetulus griseus; Liver; Microsome; 20 mg/kg.
Description: Compound was evaluated for the inhibition of elastase in hamster liver microsomes at a concentration of 20 mg/kg

In data set [10] the target is T2, Neutrophil elastase (Homo sapiens). The conditions noted are these: Cricetulus griseus; Liver; Microsome; 10 mg/kg.
Description: Compound was evaluated for the inhibition of elastase in hamster liver microsomes at a concentration of 10 mg/kg
Data set [11] addresses T1, Neutrophil elastase. Description: In vitro inhibitory activity in human whole blood (HWB) elastase. The data set is classed as tissue-based.
Data set [12] has as its system Hamster. Description: Plasma clearance after iv administration at 4 mg/kg in hamster. The class given is ADME, organism-based. Further details: dose 4 mg/kg, route intravenous. To be noted: cricetinae, in vivo.
Data set [13] in a line: Bioavailability after po administration at 4 mg/kg in hamster. The class given is ADME, organism-based, Cricetulus griseus. The conditions noted are these: chinese hamster, in vivo.
Data set [14] deals with T2, Neutrophil elastase (Homo sapiens). As to the kind of experiment: Compound was evaluated in vivo for the inhibition of elastase in hamster bronchoalveolar lavage (BAL) 6 hour after an intratracheal dose of IL-8 at a concentration 40 mg/kg. To be noted: Cricetulus griseus; Lung. Set-up: dose 40 mg/kg. The class given is organism-based.
Data set [15] is described as follows: Volume distribution after iv administration at 4 mg/kg in hamster. The class given is ADME, organism-based. Further details: dose 4 mg/kg, route intravenous. To be noted: cricetinae, in vivo.
Data set [16] is described as follows: Half life after iv administration at 4 mg/kg in hamster. The class given is ADME, organism-based. Set-up: dose 4 mg/kg, route intravenous. The conditions noted are these: cricetinae, in vivo.
Data set [17] concerns the target T2, Neutrophil elastase (Homo sapiens). As to the kind of experiment: Compound was evaluated in vivo for the inhibition of elastase in hamster bronchoalveolar lavage (BAL) 6 hour after an intratracheal dose of IL-8 at a concentration 20 mg/kg. The data set is classed as organism-based. To be noted: Cricetulus griseus; Lung. Further details: dose 20 mg/kg.
Data set [18] has the same target. Description: Compound was evaluated in vivo for the inhibition of elastase in hamster bronchoalveolar lavage (BAL) 6 hour after an intratracheal dose of IL-8 at a concentration 10 mg/kg. The data set is classed as organism-based. The conditions noted are these: Cricetulus griseus; Lung. Set-up: dose 10 mg/kg.
The target is the same in data set [19]. As to the kind of experiment: In vitro inhibition of human whole blood (HWB) elastase at a concentration of 10 uM.
Data set [20] has the same target. As to the kind of experiment: In vitro percent inhibition of human whole blood (HWB) elastase at a concentration of 10 uM except in plasma. The class given is tissue-based.
Data set [21] has the same target. Description: In vitro inhibition of human whole blood (HWB) elastase at a concentration of 10 uM except in buffer.

The molecule `C=CC[C@H]1C(=O)N[C@H]2CCN(C(=O)OCc3ccccc3)[C@@H]21` came in with an IC50 against Neutrophil elastase [1] above 500 nM.
`CCC[C@@H](NC(=O)N1C(=O)C(CC)(CC)[C@@H]1Oc1ccc(C(=O)N2CCN(C)CC2)cc1)c1ccc2c(c1)OCO2` yielded an IC50 against Neutrophil elastase [2] of 0.45 nM.
`C=CC[C@H]1C(=O)N(CCCCCC)[C@H]2CCN(C(=O)OCc3ccccc3)[C@H]12` gave an IC50 against Neutrophil elastase [1] of 29 nM.
Still for that read-out and setting: the value for `C=CC[C@H]1C(=O)N(C(=O)OCC)[C@H]2CCN(C(=O)OCc3ccccc3)[C@H]12` was 2 nM.
As to `CCC[C@H]1C(=O)N(S(C)(=O)=O)[C@H]2CCN(C(=O)CCN3CCCCC3)[C@H]12.Cl`, the half-life is 30 min in [3] and 12 min in data set [7]. The solubility in data set [4] is above 1000 µg/mL. 140 nM corresponded to half-maximal inhibition on Neutrophil elastase [1] (IC50). This molecule also returned a distribution volume (Vd) in [5] of 2.3 L/kg. Moreover, the Clp with Hamster [6] was found to be 140 mL/min/kg. In addition, the bioavailability in data set [8] amounted to 49%. For the same molecule, the inhibition in data set [9] was 76%; in [10] it was 41%.
The molecule `C=CC[C@H]1C(=O)N(C(=O)NCC)[C@H]2CCN(C(=O)OCc3ccccc3)[C@H]12` yielded a concentration for half-maximal inhibition (IC50) against Neutrophil elastase [1] of 31 nM.
Consider `COC(=O)N[C@H](C(=O)N1CCC[C@H]1C(=O)N[C@H](C(=O)C(F)(F)F)C(C)C)C(C)C` (Moc-Val-Pro-Val-CF3), for which the IC50 against Neutrophil elastase [11] was above 10 nM.
In the data set on Hamster [12], `CCC[C@H]1C(=O)N(S(=O)(=O)c2ccc3ccccc3c2)[C@H]2CCN(C(=O)CCN3CCCCC3)[C@H]12.Cl` registered a Clp of 200 mL/min/kg. Further, in data set [13], the bioavailability worked out at 1%. The molecule further had a solubility in [4] above 1000 µg/mL. The same molecule came in with an IC50 against Neutrophil elastase [1] of 137 nM. Moreover, the inhibition worked out at 60% in [14], 30% in [17] and 10% in data set [18]. In addition, the Vd in [15] was 8.1 L/kg. Moreover, in data set [16], the half-life is 30 min.
`C=CC[C@H]1C(=O)N(S(C)(=O)=O)[C@H]2CCN(C(=O)OCc3ccccc3)[C@H]12` showed an inhibition in data set [19] of 98%.
Consider `C=CC[C@H]1C(=O)N(S(=O)(=O)c2ccc3ccccc3c2)[C@H]2CCN(C(=O)OCc3ccccc3)[C@H]12`, for which the inhibition in [20] is 23%; in data set [21], 92%.
